From patent US20120184504A1, “"The Use of a PAR-1 Antagonist in Combination with a P2Y12 ADP Receptor Antagonist for Inhibition of Thrombosis"” (priority 2009, published 2012)

Experiments:
[1] = Prothrombin time (PT) in plasma, Folts model animals; type: in vivo, cynomolgus monkeys; details: for PT: i.v.; for effect on PT: tested doses
Experimental: (§1) Animals instrumented to produce CFRs were administered SCH 602539, cangrelor, or a combination of SCH 602539 and cangrelor. The dosing regimens of SCH 602539 were selected to provide a broad range of inhibition of platelet aggregation induced by 1 μM thrombin receptor agonist peptide (TRAP), whereas the doses of cangrelor were selected to achieve 50%-60% inhibition of platelet aggregation induced by 10 μM ADP (the degree of inhibition obtained with clopidogrel). Group 1 received drug vehicle only (20% hydroxypropyl betacyclodextran or saline, 2 mL i.v.). Group 2 received SCH 602539 dissolved in 20% hydroxypropyl betacyclodextran administered as sequential i.v. boluses of 0.1, 0.3, or 1 mg/kg, at 30-minute intervals. Group 3 received cangrelor dissolved in saline and administered as an intravenous infusion of 0.1, 0.2, or 0.3 μg/kg/min for 30 minutes each. Group 4 received a combination of SCH 602539 bolus plus cangrelor infusion (at respective doses of: 1) 0.05 mg/kg+0.05 μg/kg/min; 2) 0.1 mg/kg+0.1 μg/kg/min; and 3) 0.15 mg/kg+0.1 μg/kg/min. The three dose regimens within each group were administered sequentially over the consecutive 30-minute periods coinciding with the re-induction of endothelial injury. Study drug or vehicle was administered after stable CFRs were achieved, and upon the completion of a 30-minute baseline CFR collection period, drug(s) or vehicle were administered incrementally (every 30 minutes) either as a bolus (SCH 602539) or as an infusion (cangrelor), and their effects on CFRs were monitored in the next three 30-minute observation periods. Blood samples (3 mL) were collected from the femoral arterial catheter at the end of each 30-minute observation period for assessment of ex vivo platelet aggregation and coagulation parameters.
Platelet aggregation studies were performed ex viva on blood samples obtained from the monkeys subjected to the Folts model, using a ChronoLog whole blood aggregometer (Model 540VS, Havertown, Pa.). Briefly, 0.5 mL of blood was incubated with 0.5 mL of normal saline at 37° C. in a cuvette containing a stir bar for 2 minutes. Platelet agonists used in this study included TRAP (3 μM), ADP (10 μM), the thromboxane A2 mimetic U46619 (10 μM), and collagen (3 μg/mL). Platelet aggregation was monitored for 5 minutes following the addition of the agonist. The peak aggregation response was recorded in ohms. In addition, standard coagulation parameters, including prothrombin time (PT), activated partial thromboplastin time (APTT), and activated clotting time (ACT), were assessed.
PT and APTT assays were performed with plasma, while the ACT assay was performed with whole blood. Data are presented as mean±SEM (n=5-6/group).

[2] = tested on: platelet-dependent thrombus formation (cyclic flow reductions); test: Folts model of thrombosis: cyclic flow reductions (CFRs) in the carotid artery; type: in vivo, cynomolgus monkeys; details: for EC50 (dose regimen needed for 50% reduction in CFRs): from dose-response curve, Inhibitory Effect Emax model
Description: The procedures used in this study are similar to the acute artery occlusion model developed by Folts and others. (Cook J J, Sitko G R, Bednar B, Condra C, Mellott M J, Feng D M, Nutt R F, Shafer J A, Gould R J, Connolly T M. An antibody against the exosite of the cloned thrombin receptor inhibits experimental arterial thrombosis in the African green monkey. Circulation. 1995; 91:2961-2971. Folts J. An in vivo model of experimental arterial stenosis, intimal damage, and periodic thrombosis. Circulation. 1991; 83(Suppl):IV3-IV14. Mousa S A, DeGrado W F, Mu D X, Kapil R P, Lucchesi B R, Reilly T M. Oral antiplatelet, antithrombotic efficacy of DMP 728, a novel platelet GPIIb/IIIa antagonist. Circulation. 1996; 93:537-543. Wu D, Vanhoorelbeke K, Cauwenberghs N, Meiring M, Depraetere H, Kotze H F, Deckmyn H. Inhibition of the von Willebrand (VWF)-collagen interaction by an antihuman VWF monoclonal antibody results in abolition of in vivo arterial platelet thrombus formation in baboons. Blood. 2002; 99:3623-3628).
Cynomolgus monkeys were sedated with ketamine HCl (10 mg/kg, IM) followed by anesthetization with sodium pentobarbital 20 mg/kg i.v. bolus and an infusion of 5 mg/kg/h i.v. for the duration of the experiment. Body temperature was maintained at 37°-39° C., and fluids infused were warmed to body temperature. The right carotid artery was exposed and dissected free of surrounding tissue, and a transonic flow probe of appropriate size was placed around the vessel. A Lexan constrictor (5 mm length) was placed onto the carotid artery. The constrictor was sized to abolish reactive hyperemia and to reduce mean carotid blood flow by no more than 50%-60%. Mechanical damage to the endothelium was induced in the constricted segment of the artery. Cyclic flow reductions due to platelet-dependent thrombus formation occurred shortly after placement of the constrictor over the region of endothelial damage. These gradual declines in carotid blood flow were occasionally interrupted spontaneously, but frequently required manual restoration by gently shaking the vessel. Flow reductions would typically return in 3-4 minutes. CFR frequency was calculated as the number of such cycles (CFRs) over a 30-minute period. On the basis of pilot studies, CFRs were evaluated in a maximum of four consecutive 30-minute collection periods, and mechanically mediated endothelial injury was performed at 30-minute intervals to ensure exposure of the thrombogenic endothelium.
as §1, with “Study drug or vehicle was administered after stable CFRs were achieved, and upon the completion of a 30-minute baseline CFR collection period, drug(s) or vehicle were administered incrementally (every 30 minutes) either as a bolus (SCH 602539) or as an infusion (cangrelor), and their effects on CFRs were monitored in the next three 30-minute observation periods. Blood samples (3 mL) were collected from the femoral arterial catheter at the end of each 30-minute observation period for assessment of ex vivo platelet aggregation and coagulation parameters.” left out

Question: For CCOC(=O)N[C@@H]1CC[C@@H]2[C@@H](C1)C[C@H]1C(=O)O[C@H](C)[C@H]1[C@H]2/C=C/c1ccc(-c2ccccn2)cn1 [SCH 602539], which PT ([1]; SCH 602539 0.1 mg/kg, bolus, plasma, baseline 11.6 ± 0.4) is on record?
Answer: Its PT is 11.5 ± 0.2 s.

Question: And the PT ([1]; SCH 602539 0.3 mg/kg, bolus, baseline 11.6 ± 0.4)?
Answer: The PT was 11.8 ± 0.4 s.

Question: What about the PT ([1]; SCH 602539 1.0 mg/kg, bolus, baseline 11.6 ± 0.4) of the same compound?
Answer: The PT was 12.8 ± 1.1 s.

Question: What about the “effect on PT” value [1] of the same compound?
Answer: Its value is “no effect”.

Question: And the “CFR frequency reduced from baseline” value ([2]; SCH 602539 0.1 mg/kg i.v. bolus)?
Answer: The value was “approximately 50%”.

Question: What about the CFRs ([2]; SCH 602539 0.1 mg/kg i.v. bolus, CFRs per 30-minute period, baseline 8.7 + 0.6) of the same compound?
Answer: Its CFRs is 4.3 + 1.3.

Question: And the “animals in which CFRs were completely abolished” value ([2]; SCH 602539 0.3 mg/kg)?
Answer: The value was 4 of 6.

Question: And the “CFR frequency reduced from baseline” value ([2]; SCH 602539 0.3 mg/kg i.v. bolus, P<0.05 versus vehicle)?
Answer: Its value is greater than 80%.

Question: What about the CFRs ([2]; SCH 602539 0.3 mg/kg i.v. bolus, per 30-minute period, baseline 8.7 + 0.6) of the same compound?
Answer: The CFRs was 1.7 + 1.2.

Question: What about the “animals in which CFRs were completely abolished” value ([2]; SCH 602539 1.0 mg/kg) of the same compound?
Answer: The value was 4 of 6.

Question: And the “CFR frequency reduced from baseline” value ([2]; SCH 602539 1.0 mg/kg i.v. bolus, P<0.05 versus vehicle)?
Answer: Its value is greater than 80%.

Question: What about the CFRs ([2]; SCH 602539 1.0 mg/kg i.v. bolus, per 30-minute period, baseline 8.7 + 0.6) of the same compound?
Answer: Its CFRs is 1.8 + 1.3.

Question: And the “EC50 (dose regimen needed for 50% reduction in CFRs)” value ([2]; i.v. bolus)?
Answer: Its value is 0.10 ± 0.042 mg/kg.

Question: For CSCCNc1nc(SCCC(F)(F)F)nc2c1ncn2[C@@H]1O[C@H](COP(=O)(O)OP(=O)(O)C(Cl)(Cl)P(=O)(O)O)[C@@H](O)[C@H]1O [Cangrelor], which PT ([1]; Cangrelor 0.1 μg/kg/min × 30 min, plasma, mean±SEM, baseline 10.6 ± 0.4) is on record?
Answer: Its PT is 10.4 ± 0.3 s.

Question: And the PT ([1]; Cangrelor 0.2 μg/kg/min × 30 min, baseline 10.6 ± 0.4)?
Answer: Its PT is 10.8 ± 0.6 s.

Question: What about the PT ([1]; Cangrelor 0.3 μg/kg/min × 30 min, baseline 10.6 ± 0.4) of the same compound?
Answer: Its PT is 10.7 ± 0.6 s.

Question: What about the “effect on PT” value [1] of the same compound?
Answer: The value was “no effect”.

Question: And the CFRs ([2]; Cangrelor 0.1 μg/kg/min i.v. infusion 30 min, per 30-minute period, baseline 9.5 + 0.9)?
Answer: The CFRs was 5.7 + 1.5.

Question: And the CFRs ([2]; Cangrelor 0.2 μg/kg/min i.v. infusion 30 min, baseline 9.5 + 0.9)?
Answer: The CFRs was 3.2 + 1.7.

Question: And the CFRs ([2]; Cangrelor 0.3 μg/kg/min i.v. infusion 30 min, baseline 9.5 + 0.9)?
Answer: Its CFRs is 1.2 + 1.3.

Question: And the “CFR frequency reduced from baseline” value ([2]; cangrelor 0.1 μg/kg/min 30-minute infusion)?
Answer: The value was “approximately 40%”.

Question: What about the “CFR frequency reduced from baseline” value ([2]; cangrelor 0.2 μg/kg/min 30-minute infusion, significant versus vehicle) of the same compound?
Answer: The value was roughly 70%.

Question: What about the “CFR frequency reduced from baseline” value ([2]; cangrelor 0.3 μg/kg/min 30-minute infusion, significant versus vehicle) of the same compound?
Answer: Its value is roughly 90%.

Question: What about the “animals in which CFRs were completely prevented” value ([2]; cangrelor highest dose (0.3 μg/kg/min)) of the same compound?
Answer: The value was 5/6.

Question: What about the “animals in which CFRs were completely prevented” value ([2]; cangrelor intermediate dose (0.2 μg/kg/min)) of the same compound?
Answer: The value was 3/6.

Question: What about the “complete suppression of CFRs” value ([2]; cangrelor lowest dose (0.1 μg/kg/min)) of the same compound?
Answer: The value was “No complete suppression”.

Question: And the “EC50 (dose regimen needed for 50% reduction in CFRs)” value ([2]; i.v. infusion)?
Answer: Its value is 0.099 ± 0.039 µg/kg/min.
